Measured values from PubChem BioAssay AID493048 (Broad Institute, 2011).
Calls of active or inactive are those of the source. How the calls were made is not given here.

molecular target: GTP-binding nuclear protein Ran (Homo sapiens) + Importin subunit beta-1 (Homo sapiens) (UniProt P62826+Q14974); test: inhibitors of Ran–importin-beta complex, dose response, biochemical, plate reader, dry powder (AID 493048); details: biochemical RanGTP-importin-beta complex

Row | Structure (SMILES) | AC50
1 | Cc1cccc(-n2c(C)cc(/C=C3/C(=N)N4N=C(CC(C)C)SC4=NC3=O)c2C)c1 | 28.2 µM
2 | CC(C)SCC(=O)Nc1ncc2c(n1)-c1ccccc1CC2 | 37.3 µM
3 | COc1ccc(-c2cc(C(F)(F)F)n3nc(N)nc3n2)cc1 | 61.5 µM
4 | C=CCn1c(N)c(C(=O)OCCC)c2nc3ccccc3nc21 | 36.4 µM
5 | COc1cc(OC)cc(C(=O)NCCNc2nc3cc(C)cc(C)c3cc2C#N)c1 | 12.9 µM
6 | COc1ccc(CCNC(=O)c2cc3c(=O)n4cccc(C)c4nc3n(CCCN3CCOCC3)c2=N)cc1 | 9.68 µM
7 | O=C(O)Cn1cc(/C=C2\SC(=O)N(CC(=O)N3CCCCCC3)C2=O)c2ccccc21 | 90.9 µM
8 | CC1=C(C(=O)OCC2CCCO2)C(c2ccccc2OC(C)C)C2C(=O)CC(c3ccco3)CC2=N1 (stereo unspecified) | 10.3 µM

same assay, conditions: biochemical RanGTP-importin-beta complex, at 26 µM (top of the series)

Row | Structure (SMILES) | activity change, negative = inhibition
9 | CCCN(CCC)c1nc(N2CCCC2)c2cc(OC)c(OC)cc2n1 | inactive

same assay, conditions: biochemical RanGTP-importin-beta complex, at 50 µM (top of the series)

Row | Structure (SMILES) | activity change, negative = inhibition
10 | CCCN(CCC)c1nc(N2CCCC2)nc2cc(OC)c(OC)cc12 | inactive

same assay, conditions: biochemical RanGTP-importin-beta complex, at 100 µM (top of the series)

Row | Structure (SMILES) | activity change, negative = inhibition
11 | c1ccc(CNc2nc(N3CCCC3)nc3ccccc23)cc1 | inactive
12 | Cc1cc(Nc2ccc(C(F)(F)F)cc2)n2ncnc2n1 | inactive
13 | Cc1cccc(C)c1NC(=O)C1C(=O)c2sccc2N(C)S1(=O)=O (stereo unspecified) | inactive
14 | C[C@H](Nc1nc(Cl)nc2ccccc12)c1ccccc1 | inactive
15 | CC1(C)CCC(c2ccc(Cl)cc2)=C(CN2CCN(c3ccc(C(=O)NS(=O)(=O)c4ccc(N[C@H](CCN5CCOCC5)CSc5ccccc5)c(S(=O)(=O)C(F)(F)F)c4)cc3)CC2)C1 | inactive
16 | CC1(C)CC(=O)c2c(C(F)(F)F)nn(-c3ccc(C(N)=O)c(NC4CCC(O)CC4)c3)c2C1 (stereo unspecified) | inactive
17 | CCCN(CCC)c1nc(N2CCOCC2)nc2ccccc12 | inactive
18 | CSc1ccc(/C=C(/Sc2nnc(-c3ccccc3)o2)C(=O)O)cc1 | inactive
19 | CC(Nc1nc(N2CCCC2)nc2ccccc12)c1ccccc1 (stereo unspecified) | inactive
20 | C[C@@H](Nc1nc(N2CCCC2)nc2ccccc12)c1ccccc1 | inactive
21 | O=c1[nH]c(N2CCCC2)nc2ccccc12 | inactive
22 | C[C@@H](Nc1nc(Cl)nc2ccccc12)c1ccccc1 | inactive
23 | CC1(C)CC(=O)c2c(C(F)(F)F)nn(-c3ccc(C(N)=O)c(OC4CCC(N)CC4)c3)c2C1 (stereo unspecified) | inactive
24 | Clc1nc(NCc2ccccc2)c2ccccc2n1 | inactive
25 | CCN(CC)c1nc(N2CCCC2)nc2ccccc12 | inactive
26 | CCCN(CCC)c1nc(N2CCCC2)nc2ccccc12 | inactive
27 | CCCN(CCC)c1nc(NCc2ccccc2)nc2ccccc12 | inactive
28 | CCCN(CCC)c1nc(N2CCNCC2)c2ccccc2n1 | inactive
29 | c1ccc2c(N3CCOCC3)nc(N3CCOCC3)nc2c1 | inactive
30 | C[C@H](Nc1nc(N2CCCC2)nc2ccccc12)c1ccccc1 | inactive
31 | CCCN(CCC)c1nc(Cl)nc2ccccc12 | inactive
32 | c1ccc2c(N3CCCC3)nc(N3CCCC3)nc2c1 | inactive
33 | CCCN(CCC)c1nc(N)c2ccccc2n1 | inactive
34 | COc1cc2nc(N3CCCC3)nc(N3CCCC3)c2cc1OC | inactive
35 | CCNc1nc(N2CCCC2)nc2ccccc12 | inactive
36 | CC1(C)CC(=O)c2c(C(F)(F)F)nn(-c3ccc(C(N)=O)c(NC4CCC(OC(=O)CN)CC4)c3)c2C1 (stereo unspecified) | inactive
